Reference: publication PMC12980303, “Development of a novel risk score reflecting the relative harm potential of synthetic cannabinoids based on prevalence estimates, well‐documented intoxication cases and basic pharmacological data” (Addiction (Abingdon, England), 2025)

Assays:
[1] = occurrence of SCRAs in intoxication samples of the prospective study; parameters: species or system human; settings: 2013 to 2021
Description: For this study, the 10 SCRAs (AB‐[…], ADB‐[…], AB‐FUBINACA, FUB‐AMB, Cumyl‐PEGACLONE, MDMB‐4en‐PINACA, MDMB‐CHMICA, 5F‐MDMB‐PICA, 5F‐ADB and 5F‐PB‐22) which were most frequently detected in intoxications in a prospective observational study during the time period of 2013 to 2021 were selected (see Table 1). Additionally, JWH‐210, a model compound representative of the early SCRAs, along with two substances prevalent in screenings during years 2019/2020 (5F‐Cumyl‐PEGACLONE and 4F‐MDMB‐BICA), were included in this study (see Tables S2–S7). […] JWH‐018 was also included as a reference compound because of its historical use in this capacity. Including both reference compounds facilitates direct comparison with previously published data, thereby enhancing the relevance and interpretability of the results obtained in the present study. Information on the origin of the test and reference compounds and all chemicals used in this study can be found in Table S1.
The data on intoxication cases used for the development of this risk score were obtained from a prospective study. This study included patients who were treated in an emergency department room following the consumption of an NPS. Clinical symptoms and follow‐up information were documented using a structured questionnaire completed by the attending physicians. The methodology has been previously published. Residual serum (obtained from venous blood) and urine samples, accompanied by the completed questionnaires, were sent to the Poisons Information Center Freiburg for further analysis. The toxicological analyses of serum and urine samples were conducted at the Institute of Forensic Medicine Freiburg. No data was available on previous consumption patterns or potential development of tolerance after continued misuse. The study was conducted in accordance with the Declaration of Helsinki and approved by the regional ethics committee of the University of Freiburg (no. 235/13_130683). The intoxication cases included in this study are those in which SCRA use was confirmed by liquid chromatography tandem mass spectrometry (LC–MS/MS).

hCB1 receptor = hCB1 receptor (Homo sapiens, UniProt P21554); assay: competitive [3H]CP‐55940 radioligand binding assay (hCB1 receptor affinity); settings: Ki [nM] (95% CI), [3H]CP‐55940 competition, hCB1 membrane preparations (HEK293‐EBNA), Cheng–Prusoff; 95% CI in brackets
Method: Receptor assays were performed on three different days and each concentration was tested in duplicate.
From the IC50, the respective Ki values were calculated using the Cheng–Prusoff equation [39].

Sequence of hCB1 receptor (P21554 whole entry): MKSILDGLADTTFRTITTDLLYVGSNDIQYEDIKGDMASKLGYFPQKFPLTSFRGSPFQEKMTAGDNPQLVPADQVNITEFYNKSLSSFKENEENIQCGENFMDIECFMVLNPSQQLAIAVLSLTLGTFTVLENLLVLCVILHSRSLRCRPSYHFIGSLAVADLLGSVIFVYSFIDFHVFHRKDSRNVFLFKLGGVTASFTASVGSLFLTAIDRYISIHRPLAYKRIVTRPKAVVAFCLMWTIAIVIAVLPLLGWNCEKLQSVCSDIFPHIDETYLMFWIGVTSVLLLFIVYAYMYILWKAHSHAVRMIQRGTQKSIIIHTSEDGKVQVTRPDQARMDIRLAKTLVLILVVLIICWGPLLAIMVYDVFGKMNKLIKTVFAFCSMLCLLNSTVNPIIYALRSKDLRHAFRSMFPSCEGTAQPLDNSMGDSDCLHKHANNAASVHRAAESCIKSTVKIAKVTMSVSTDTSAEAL

CC(C)C(NC(=O)c1nn(CC2CCCCC2)c2ccccc12)C(N)=O (stereo not drawn)
No. of intoxications ([1]; 139 intoxication samples of the prospective study): 33
Percentage in % ([1]; proportion of 139 intoxications in which the substance was detected): 24%
Ki (hCB1 receptor): 0.145 nM
